Several values for one entry are separate records, joined by “and”; a condition that tells them apart may be missing. Equal values may be shown once.
Assays:
[1] = Stability of target analytes in the breath collection device; format: physicochemical
Text: In particular, CBN, CBG, and Δ^9-THCV all have a much greater incidence in breath during peak impairment (the first hour after smoking) compared to pre-smoking. […] Stability of the analytes within the breath collection devices was previously established (see Table 4 below).

[2] = Cannabinoid half-lives in exhaled breath, multi-point breath sampling; format: in vivo, human; conditions: for Cannabinoid Half-Lives (min) in breath, back-to-back sampling: individual subject
Description: (§1) The positive recent use test results outside of the three-hour impairment window based on blood sampling alone led to the incorporation of a second testing matrix, exhaled breath, to strengthen the results of the test method so that cannabis users who are within the impairment window after smoking can be more accurately identified. For this purpose, a total of 44 additional subjects were evaluated in a smoking study in which both exhaled breath and blood samples were collected and then analyzed by LC-HRMS for cannabinoids and Δ^9-THC metabolites. As with the 48-subject blood-based study, subjects were given a 500-mg cannabis cigarette to smoke, and breath and blood samples were collected at various time points before and after smoking.
These included the presence of CBN, CBC, CBG, Δ^9-THCV, and CBGA, and short half-lives (<60 minutes) for Δ^9-THC, CBN, CBC, CBG, and Δ^9-THCV (see Table 5 below). […] Pre-smoking, half-lives were calculable for Δ^9-THC in only three subjects.
Evidence of recent cannabis use by inhalation through smoking or vaping dissipates rapidly in exhaled breath, and thus allowing 20 minutes between breath samplings, which was employed in the blood-based study and for most of the subjects in the blood and breath-based study, may result in the loss of valuable data. In the last nine subjects involved in the exhaled breath study, a back-to-back sample collection strategy was employed whereby two exhaled breath samples were collected in quick succession at 20 and 40 minutes post-smoking. Approximately two minutes elapsed between the collection of each sample. The very short half-lives observed for Δ^9-THC, CBN, and other cannabinoids (approximately five minutes or less) in exhaled breath would allow for rapid sampling (see Table 6 below).

[3] = separate 20-subject and 23-subject studies (Lynch; Olla); cited from earlier work
[4] = Cannabinoids and Δ^9-THC metabolites in capillary blood (LC-HRMS); conditions: pre-smoking
Text: The complex nature of cannabinoid pharmacokinetics and pharmacodynamics calls for a new approach for effectively determining recent use of cannabis within the impairment window. We sought to develop a multiple-parameter test based on pharmacological changes in Δ^9-THC and its metabolites in blood over time. This approach requires the collection of two samples separated by a known time interval, which is a critical difference compared to current blood testing methods that rely on the collection of a single sample. The two-sample strategy makes possible the detection of Δ^9-THC in its distribution phase where the half-life is very short [Moeller M R. et al., J Forensic Sci 37:969-83 (1992); Wall M E. et al., Clin Pharmacol Ther 34:352-63 (1983)], which occurs only within the first few hours after smoking, and for the evaluation of how Δ^9-THC metabolite levels in blood are changing with time relative to Δ^9-THC. A liquid chromatography high-resolution mass spectrometry (LC-HRMS) bioanalytical method for the quantification of cannabinoids in microsamples (50 μL) of whole blood was developed and validated for this purpose [DeGregorio M W. et al., J AOAC Int 103:725-35 (2020)].
A total of 92 subjects were included in clinical trials designed to evaluate the feasibility of the described method for determining recent cannabis use (blood-based study in 48 subjects) and recent cannabis use and impairment (breath- and blood-based study in 44 subjects). Each subject was given a single cannabis cigarette and instructed to smoke as much of it as possible within a 10-minute period. Cigarettes containing 500 mg of dried cannabis flower were prepared immediately before each smoking session. During the studies, subjects were given a variety of cannabis chemovars to smoke, with Δ^9-THC content ranging from a low of 8.5% to a high of 28.4%. A wide variety of chemovars was included to account for the variability in Δ^9-THC potencies available in numerous cannabis retail establishments in the various U.S. states where recreational and/or medicinal cannabis has been legalized. Capillary blood samples ([…] collected at various time points prior to smoking and up to 200 minutes after smoking, were obtained from a total of 92 subjects using a variety of methods including lancets and two types of automated blood collection devices. Exhaled breath samples were collected from a total of 44 subjects at various time points prior to smoking and up to 240 minutes post-smoking. Breath samples were collected using devices equipped with electrostatic polymer filters and that are designed to collect approximately 20 L of exhaled breath through normal breathing. The time required for breath sample collection was approximately 2-3 minutes. A total of 74 subjects were asked to self-assess their level of impairment before smoking and at each designated sampling time point after smoking based on a scale ranging from 0 (not impaired) to 10 (very impaired) as shown in FIG. 2. As a physical indicator of impairment, 44 subjects were evaluated for horizontal gaze nystagmus.
One of the first endpoints investigated during clinical development of the recent use test method was whether there is any relationship between blood Δ^9-THC levels and impairment. Prior to smoking, Δ^9-THC blood concentrations were evaluated in a group of 30 subjects before and up to 200 minutes after smoking a 500-mg cannabis cigarette and compared to a common legal limit (5 ng/mL) for establishing driver impairment due to cannabis.

[5] = Presence of cannabinoids in exhaled breath before and after smoking (LC-HRMS); format: in vivo, human
Description: as §1

[6] = Breath/blood Δ^9-THC ratio; conditions: all 44 subjects
Text: We hypothesized that the incorporation of both exhaled breath and blood into a comprehensive recent cannabis use test would confirm recent use of inhaled cannabis within the impairment window, improving the accuracy of the two-point breath testing method. For this purpose, blood samples were collected from the 44 subjects in addition to breath samples and analyzed for Δ^9-THC and other cannabinoids. […] This ratio was computed by dividing the Δ^9-THC peak area ratio to the internal standard in breath by the corresponding peak area ratio in blood.

[7] = Day 3, breath collection device
[8] = Day 7, breath collection device
[9] = Day 10, breath collection device
[10] = Day 14, breath collection device
[11] = Day 30, breath collection device

Row | Structure (SMILES) | Analyte Stability (%) at Room Temperature (20-25° C.) [1, 7] [%] | Analyte Stability (%) at Room Temperature (20-25° C.) [1, 8] [%] | Analyte Stability (%) at Room Temperature (20-25° C.) [1, 9] [%] | Analyte Stability (%) at Room Temperature (20-25° C.) [1, 10] [%] | Analyte Stability (%) at Room Temperature (20-25° C.) [1, 11] [%] | Average Half-Life (minutes ± SD) in breath ([2]; 0-10 Minutes Post-Smoking) [min] | Average Half-Life (minutes ± SD) in breath ([2]; 0-20 Minutes Post-Smoking) [min] | detection in subjects' blood samples at baseline prior to smoking [4] | Presence in exhaled breath, Percent (%) Positivity ([5]; >60 minutes after smoking) | Presence in exhaled breath, positive/evaluable subjects ([5]; >60 minutes after smoking) | Presence in exhaled breath, positive/evaluable subjects ([5]; Baseline (Pre-smoking)) | Presence in exhaled breath, Percent (%) Positivity ([5]; ≤60 minutes after smoking) | Presence in exhaled breath, positive/evaluable subjects ([5]; ≤60 minutes after smoking) | further results
1 | CCCCCc1cc(O)c2c(c1)OC(C)(C)[C@@H]1CCC(C)=C[C@@H]21 [Δ^9-THC, Δ^9-tetrahydrocannabinol] | 91.3 | 81.2 | 82.9 | 66.2 | 55.6 | 4.4 ± 2.2 | 4.2 ± 2.1 | detected | (92.5%) | 37/40 | 23/34 | (100%) | 40/40 | Average Half-Life (minutes ± SD) in breath ([2]; 20-40 Minutes Post-Smoking): 8.1 ± 2.3 min; Average Half-Life (minutes ± SD) in breath ([2]; 20-60 Minutes Post-Smoking): 12.8 ± 8.8 min; Cannabinoid Half-Lives (min) in breath, back-to-back sampling, Average ([2]; 20 Minutes Post-Smoking): 3.5 min and 2.2 min; Cannabinoid Half-Lives (min) in breath, back-to-back sampling ([2]; 20 Minutes Post-Smoking): 1.9 min (2×) and 2.3 min and 2.1 min and 2.9 min and 2.8 min and 1.0 min and 1.4 min and 1.6 min and 7.3 min and 3.8 min and 11.8 min and 1.2 min and 0.9 min; Average Half-Life (minutes ± SD) in breath ([2]; 40-60 Minutes Post-Smoking): 24.4 ± 25.4 min; Cannabinoid Half-Lives (min) in breath, back-to-back sampling, Average ([2]; 40 Minutes Post-Smoking): 6.1 min; Cannabinoid Half-Lives (min) in breath, back-to-back sampling ([2]; 40 Minutes Post-Smoking): 2.2 min and 9.9 min and 3.7 min and 5.9 min and 8.6 min; Average Half-Life (minutes ± SD) in breath ([2]; 60-80 Minutes Post-Smoking): 35.0 ± 41.7 min; Average Half-Life (minutes ± SD) in breath ([2]; Pre-Smoking): 28.8 ± 28.7 min; half-lives observed in exhaled breath ([2]; approximate, summary statement): five; pre-smoking detection rates of Δ^9-THC in breath [3]: 100%; average baseline Δ^9-THC concentration in blood ([4]; 12-24 h abstinence, n=30): 10.5 ± 15 ng/mL; baseline Δ^9-THC levels in blood ([4]; 16 of 30 subjects): exceeded 5 ng/mL; median baseline Δ^9-THC concentration in blood ([4]; n=30): 6.4 ng/mL; breath/blood Δ^9-THC ratio ([6]; immediately after smoking): > 2; breath/blood Δ^9-THC ratio ([6]; within the first hour after smoking): ≥ 2
2 | CCCc1cc(O)c2c(c1)OC(C)(C)[C@@H]1CCC(C)=C[C@@H]21 [Δ^9-THCV, Δ^9-tetrahydrocannabivarin] | 79.7 | 68.1 | 69.8 | 56.5 | 47.1 | 4.2 ± 3.9 | 2.9 ± 0.7 | detected | (0%) | 0/40 | 0/34 | (90.0%) | 36/40 | Presence in exhaled breath, Percent (%) Positivity ([5]; Baseline (Pre-smoking)): (0%)

— patent US20240027479A1, “A Comprehensive Breath Test that Confirms Recent Use of Inhaled Cannabis within the Impairment Window” (RCU Labs, Inc., priority 2018, published 2024)
